Measurements as given in patent US10654838B2, “Aminopyridine compounds useful as inhibitors of protein prenylation” (INSTITUT NATIONAL DE LA SANTE ET DE LA RECHERCHE MEDICALE …, priority 2014, dated 2020).

What was measured:
FPPS [1] = target: T1, FPPS (Homo sapiens, UniProt P14324); test: Surface plasmon resonance on immobilized FPPS; type: binding
T1 sequence (P14324 1-419): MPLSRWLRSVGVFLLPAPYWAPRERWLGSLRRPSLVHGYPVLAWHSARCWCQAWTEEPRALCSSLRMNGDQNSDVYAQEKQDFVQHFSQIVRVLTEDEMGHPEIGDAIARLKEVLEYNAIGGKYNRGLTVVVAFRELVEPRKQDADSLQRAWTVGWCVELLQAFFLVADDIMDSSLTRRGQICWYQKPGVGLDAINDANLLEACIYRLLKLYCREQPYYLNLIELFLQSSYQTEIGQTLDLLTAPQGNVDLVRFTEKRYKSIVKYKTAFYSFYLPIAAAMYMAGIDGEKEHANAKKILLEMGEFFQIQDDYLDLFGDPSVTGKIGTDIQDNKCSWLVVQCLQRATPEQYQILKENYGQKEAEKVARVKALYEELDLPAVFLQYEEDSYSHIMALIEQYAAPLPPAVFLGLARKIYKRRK
Method: Surface plasmon resonance (SPR) was measured using a BIAcore 3000 instrument at 25° C. FPPS (2800 RU) was immobilized on flow cells of a CM5-chip. The running buffer was HBSEP pH 7.4 (20 mM Hepes, 150 mM NaCl, and 0.005% P20). Regeneration was performed with 10 mM glycine, pH 3.0. […] Data were evaluated using Scrubber2 (Biologic software) and BIAeval software (BIAcore).

FT = target: T2, FT (Homo sapiens, UniProt P49354+P49356); test: FT activity assay (Farnesyltransferase [3H] SPA); type: biochemical; details: concentration inducing 50% of the maximum inhibiting effect of the compound
T2 construct: Reactions were started by adding 40 μL of treated or untreated cell lysate; endogenous in cells; host or cells: HGPS MSCs (cell lysate)
Method: (§1) Cell pellet of HGPS MSCs were resuspended in 25 mM Tris-HCl pH 7.4, 1 mM DTT, 1 mM MgCl2, 1 EDTA, 1 mM PMSF and centrifuged at 10,000×g for 10 min at 4° C. Protein content was determined using Lowry's method. Aliquots of cell lysate containing 100 μg of total proteins were incubated with tested substances at 37° C. for 30 min.
FT activity was determined by Famesyltransferase [3H] SPA enzyme assay (Amersham Life Science, Buckinghamshire, England). Briefly, FT activity was assayed in 20 μl of assay buffer containing 50 mmol/L Hepes, 30 mmol/L MgCl2, 20 mmol/L KCl and 5 mmol/L dithiothreitol, 20 μl of [3H]-FPP (12 pmol) and 20 μl of biotin lamin B. Reactions were started by adding 40 μL of treated or untreated cell lysate and incubated for 1 hour at 37° C. Reactions were stopped by the addition of 150 μL of stop reagent containing SPA bead and counted in a scintillation counter. FT activity was expressed as pmoles of incorporated [3H]-FPP into biotin lamin-B peptide per minute per milligram of total proteins (pmol/min/mg prot). Parallel samples were assayed to evaluate the total and the nonspecific radioactivity. In all experiments enzyme assays were carried out in triplicate.

FPPS [2] = target: T1, FPPS; test: FPPS activity assay; type: biochemical; set-up: endogenous in cells; host or cells: HGPS MSCs (cell lysate); details: concentration inducing 50% of the maximum inhibiting effect of the compound
Method: as §1
FPPS assay was carried out with some modifications of the procedure of Krisans et al. (Krisans et al., 1994, The Journal of biological chemistry VOL. 269: 14165-14169) and described by Gupta et al. (Gupta et al., 1999, Eur J Med Chem, VOL. 43: 2751-2767). Briefly, FPPS was assayed in 150 μL containing 25 mmol/L Hepes, pH=7, 2 mmol/L MgCl2, 1 mmol/L dithiothreitol, 5 mmol/L KF, 1% A noctyl-β-glucopyranoside, 3.3 μmol/L [4-14C] IPP (18 Ci/mmol), 3 μmol/L unlabeled IPP and 20 μmol/L geranyl diphosphate. Reactions were started by adding 40 μL of treated or untreated cell lysate and incubated for 45 min at 37° C. Reactions were stopped by the addition of 150 μL 2.5 mol/L HCl in 80% ethanol containing 100 μg/mL farnesol as a carrier. The samples were hydrolyzed for 30 min at 37° C. to convert the FPP to farnesol and neutralized by the addition of 150 μL of 10% NaOH. The reaction product (farnesol) was extracted into 1 mL of N-hexane and an aliquot (200 μL) of the organic phase was used for radioactivity counting. Parallel samples were assayed to evaluate the total and the nonspecific radioactivity. In all experiments, enzyme assays were carried out in triplicate.

HMGCR = target: T3, HMGCR (Homo sapiens, UniProt P04035); test: HMGCR colorimetric activity assay; type: biochemical
T3 construct: oxidation of NADPH by the catalytic subunit of HMGCR in the presence of the substrate HMG CoA; purchased Sigma-Aldrich
T3 sequence (P04035 340-888 limits assumed): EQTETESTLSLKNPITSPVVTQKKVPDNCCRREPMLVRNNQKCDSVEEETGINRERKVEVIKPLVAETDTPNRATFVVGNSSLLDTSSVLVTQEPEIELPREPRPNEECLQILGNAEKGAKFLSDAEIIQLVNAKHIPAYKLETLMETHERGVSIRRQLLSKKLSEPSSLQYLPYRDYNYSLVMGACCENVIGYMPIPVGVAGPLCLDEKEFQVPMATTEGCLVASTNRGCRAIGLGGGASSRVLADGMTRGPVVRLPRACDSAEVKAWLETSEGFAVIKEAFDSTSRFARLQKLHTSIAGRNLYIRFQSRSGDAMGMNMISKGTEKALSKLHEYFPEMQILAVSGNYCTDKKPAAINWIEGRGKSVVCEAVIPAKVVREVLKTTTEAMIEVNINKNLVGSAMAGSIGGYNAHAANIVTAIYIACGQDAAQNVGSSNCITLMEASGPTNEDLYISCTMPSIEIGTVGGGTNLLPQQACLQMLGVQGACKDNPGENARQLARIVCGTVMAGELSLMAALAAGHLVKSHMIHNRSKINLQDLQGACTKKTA
Method: HMGCR activity was measured using GCoA Reductase Assay Kit (Sigma-Aldrich) according to the manufacturer's protocol. The assay is based on the spectrophotometric measurement of the decrease in absorbance at 340 nm, which represents the oxidation of NADPH by the catalytic subunit of HMGCR in the presence of the substrate HMG CoA.

HDJ2 = test: Western blot analysis of HDJ2 farnesylation; type: cell-based, human

N#CC(c1ccccn1)c1ccnc(N2CCN(Cc3ccccc3F)CC2)n1 (stereo not drawn) [Mono-AP1, {2-[4-(2-fluoro-benzyl)-piperazin-1-yl]-pyrimidin-4-yl}-pyridin-2-yl-acetonitrile]
direct interaction with FPPS (SPR), in words (FPPS [1]): confirmed the direct interactions | Kd (FPPS [1]; SPR, BIAcore 3000, 25° C., read-out: Kd (M), equilibrium dissociation constant): 2.4e-05 M | IC50 (FT): 3.46 µM | IC50 (FPPS [2]): 1.55 µM | IC50 (μM) HMGCR (HMGCR): No inhibition | unfarnesylated form of HDJ2 (HDJ2): increase of the unfarnesylated form of the protein
